Experimental data taken from patent US20200360391A1, “Medicinal Composition for Treating Intractable Heart Disease” (Osaka University, priority 2016, published 2020).
Entries after “also recorded” stand apart in the source; their conditions may differ. Counter-ions that a name gives are not always drawn.

Assays:
rats [1] = settings: cited from earlier work
[2] = system: spontaneous dilated cardiomyopathy (J2N-k) hamster model; assay: Spontaneous dilated cardiomyopathy (J2N-k) hamster model, 8-week administration from 20 weeks of age (Tests 1-3): echocardiography, body weight; settings: for LVIDs 8 W: hydrochloride hydrate
Summary of the method: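 Male J2N-k δ-glycan-deficient hamsters (delivered at 18 weeks; 2-week acclimation) were dosed by oral gavage twice daily for 8 weeks in 0.5% CMC-Na (G in distilled water; 5 mL/kg) at human-equivalent doses, e.g. cilostazol 1.7 mg/kg. Camostat PLGA preparation was given 10 mg/kg s.c. every 4 weeks. Echocardiographic EF/FS changes from baseline were assessed at 4 and 8 weeks versus vehicle.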

[3] = system: rat coronary artery complete ischemia model; assay: Model of ischemia (MI) by rat coronary artery complete ligation (Tests 1 and 2): echocardiography, body weight; settings: for value of change in E.F. compared with E.F. on Day 1 / value of change in F.S. compared with F.S. on Day 1: B-MS 100, C-MS 50, F-MS 30 mg/kg s.c. single injection
rats [4] = settings: subcutaneous administration in rats; cited from earlier work
[5] = cited from earlier work
[6] = system: spontaneous dilated cardiomyopathy J2N-k baby hamsters; assay: J2N-k baby hamsters (Test 4): administration alone or in combination, echocardiography, body weight; assay type: in vivo, hamster; settings: for % FS / EF (%) / value of change in E.F. compared with E.F. at 0 W / value of change in F.S. compared with F.S. at 0 W: Test 4, dose O 0.17, C 3.3, E 15, orally twice daily, mean ± S.D.
Protocol: δ-Glycan-deficient spontaneous dilated cardiomyopathy (J2N-k) male hamsters (Japan SLC, Inc.) were delivered at 4 weeks of age. After a 1-week quarantine/acclimation, echocardiography was performed. The hamsters were grouped by stratified random assignment based on the EF values and the body weights so that each administration group was equalized.
Each test substance was individually administered twice daily (at an interval of 8 hours or more) by oral gavage, and echocardiography was performed 4 and 8 weeks after the start of administration (before dissection). Differences from the value before the start of administration (at the time of grouping) (amount of change: A) in each group were examined, and the cardiac function (EF value, FS %, etc.) was compared with that in the vehicle group (Group 1).
The doses were set according to the dose-setting basis in Test 3, and similarly orally administered twice daily. Effects of administration of combinations of two or three of carvedilol, which is a β-blocker widely used clinically, and ozagrel and/or pirfenidone were examined.

[7] = MI Test 1, NOAEL doses, 7 Day, mean ± S.D.
[8] = MI Test 1, NOAEL doses, 14 Day, mean ± S.D.
[9] = MI Test 1, NOAEL doses, 29 Day, mean ± S.D.
[10] = MI Test 2, 14 Day, B 150, G 5, I 30, C 10 mg/kg p.o. b.i.d., mean ± S.D.
[11] = MI Test 2, 29 Day, B 150, G 5, I 30, C 10 mg/kg p.o. b.i.d., mean ± S.D.

In the case of `O=C(O)/C=C/c1ccc(Cn2ccnc2)cc1` [Compound C, Ozagrel hydrochloride hydrate], the No-observed-effect level (rats [1]; rats, 3 months) is listed as 150 mg/kg, the “Dose at which toxic findings were observed” value (rats [1]; repeated oral administration in rats, duration per compound) is listed as ≥ 500 mg/kg and the “LVIDd 4 W” value ([2]; Test 1, p.o. b.i.d.) is listed as 7.1 mm. For the same molecule, the “LVIDd 8 W” value ([2]; Test 1, p.o. b.i.d.) was 7.4 mm, the “LVIDs 4 W” value ([2]; Test 1, p.o. b.i.d.) was 5.9 mm and the “LVIDs 8 W” value ([2]; Test 1, p.o. b.i.d.) was 6.1 mm. The “LVIDs 8 W” value ([2]; Test 1, p.o. b.i.d., listed as ozagrel) was “significantly lower”, the “Cardiac function (EF, FS %) actual measured value or change rate compared with control, 4 W value” ([2]; Test 3, clinical dose) was “significant cardiac function improvement effect” and the “Cardiac function improvement effect” value ([2]; Test 3, clinical dose, summary) was “cardiac function improvement effect was observed”. For the same molecule, the “Minimal effective dose (screening 2)” value ([2]; mg/kg twice per day, oral preparation) was 3.3 mg/kg, the “Action on left ventricular systolic function” value ([3]; MI Test 1, 28-day repeated oral administration b.i.d., NOAEL-based doses) was “suppression action on the deterioration of left ventricular systolic function” and the “Body weight” value ([3]; MI Test 1, NOAEL doses, 1 Day (grouping), mean ± S.D.) was 234.8 ± 8.3 g. The % FS: value of change compared with the value on Day 1 [3, 7] was 0%, the “Body weight” value [3, 7] was 240.0 ± 9.3 g and the EF: value of change compared with the value on Day 1 [3, 7] was -1%. The % FS: value of change compared with the value on Day 1 [3, 8] was -1%, the “Body weight” value [3, 8] was 261.2 ± 10.8 g and the EF: value of change compared with the value on Day 1 [3, 8] was -2%. For the same molecule, the “Body weight” value ([3]; MI Test 1, NOAEL doses, 21 Day, mean ± S.D.) was 278.9 ± 12.5 g, the % FS: value of change compared with the value on Day 1 [3, 9] was -3% and the “Body weight” value [3, 9] was 299.8 ± 13.9 g. For the same molecule, the EF: value of change compared with the value on Day 1 [3, 9] was -5%, the “EF actual measured value and/or amount of change compared with control” value ([3]; MI Test 2, Day 14 and Day 29) was “significantly higher” and the “Values of cardiac function (EF, FS %) compared with control” value ([3]; MI Test 2, oral b.i.d. 4 weeks or single subcutaneous administration) was “significantly higher”. The “Body weight” value ([3]; MI Test 2, 1 Day, B 150, G 5, I 30, C 10 mg/kg p.o. b.i.d., B MS 100, C MS 50, I MS 30 mg/kg s.c. single injection, mean) was 240.1 g, the “Body weight” value ([3]; MI Test 2, 7 Day, B 150, G 5, I 30, C 10 mg/kg p.o. b.i.d., B MS 100, C MS 50, I MS 30 mg/kg s.c. single injection, mean) was 245.7 g and the “Body weight” value ([3]; MI Test 2, 14 Day, B 150, G 5, I 30, C 10 mg/kg p.o. b.i.d., B MS 100, C MS 50, I MS 30 mg/kg s.c. single injection, mean) was 273.3 g. For the same molecule, the “value of change in E.F. compared with E.F. on Day 1” value [3, 10] was <−4.9 ± 2.3> %, the “value of change in F.S. compared with F.S. on Day 1” value [3, 10] was <−2.7 ± 1.3> % and the “Body weight” value ([3]; MI Test 2, 21 Day, B 150, G 5, I 30, C 10 mg/kg p.o. b.i.d., B MS 100, C MS 50, I MS 30 mg/kg s.c. single injection, mean) was 292.8 g. The “Body weight” value ([3]; MI Test 2, 29 Day, B 150, G 5, I 30, C 10 mg/kg p.o. b.i.d., B MS 100, C MS 50, I MS 30 mg/kg s.c. single injection, mean) was 310.4 g, the “value of change in E.F. compared with E.F. on Day 1” value [3, 11] was <−10.0 ± 3.9> % and the “value of change in F.S. compared with F.S. on Day 1” value [3, 11] was <−5.3 ± 2.1> %. For the same molecule, the LD50 (rats [4]) was 2049 mg/kg, the “Safety at the daily amount” value ([5]; camostat 600 mg daily, ozagrel 400 mg daily) was “no safety problems except for slightly prolonged bleeding time” and the “Abdominal / stomach / gastric discomfort cases” value ([5]; human, in vivo) was 0.1%. For the same molecule, the Bleeding tendency cases ([5]; human, in vivo) was 0.1%, the “Elevated AST (GOT) and/or ALT (GPT) / liver enzyme cases” value ([5]; human, in vivo) was 0.3% and the “Itching / pruritus cases” value ([5]; human, in vivo) was 0.2%. For the same molecule, the “Nausea cases (cilostazol: nausea/vomiting)” value ([5]; human, in vivo) was 0.3%, the Rash cases ([5]; human, in vivo) was 0.2% and the “Cases with side effects (including laboratory test value abnormality)” value ([5]; share of cases evaluated for safety) was 2.0%. For the same molecule, the “Action on decrease in left ventricular systolic function” value ([6]; Test 4, clinical doses p.o. b.i.d., 8 weeks, hydrochloride hydrate) was “significant suppression action on a decrease in left ventricular systolic function; also recorded: action of significantly suppressing a decrease in left ventricular systolic function”, the “Body weight 3 W” value ([6]; Test 4, p.o. b.i.d., clinical dose) was 85.4 g and the “% FS” value ([6]; 0 W (start of administration)) was 39.1 ± 2.7%. For the same molecule, the “EF (%)” value ([6]; 0 W (start of administration)) was 77.3 ± 2.9%, the “% FS” value ([6]; 4 W) was 34.9 ± 1.5% and the “EF (%)” value ([6]; 4 W) was 72.3 ± 2.0%. The “value of change in E.F. compared with E.F. at 0 W” value ([6]; 4 W) was <−5.0 ± 1.4> %, the “value of change in F.S. compared with F.S. at 0 W” value ([6]; 4 W) was <−4.2 ± 1.4> % and the “% FS” value ([6]; 8 W) was 30.7 ± 2.0%. The “EF (%)” value ([6]; 8 W) was 66.6 ± 2.8%, the “value of change in E.F. compared with E.F. at 0 W” value ([6]; 8 W) was <−10.7 ± 2.0> % and the “value of change in F.S. compared with F.S. at 0 W” value ([6]; 8 W) was <−8.4 ± 1.6> %.
